Measurements taken from patent US10519132B2, “Isocorydine derivatives, preparation method and use thereof” (Lanzhou Institute of Chemical Physics, Chinese Academy of …, priority 2017, dated 2019).
pIC50: −log10 of the molar value. Like-named read-outs stand apart in the source and are kept apart here.

Legend:
[1] = tested on: human liver cancer cell strain HepG2; assay: MTT growth inhibition on HepG2; type: cell-based;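 further: adherent cells in 96-well plates treated with a concentration series for 24, 48 or 72 h, MTT absorbance read at 490 nm, inhibition computed relative to untreated control wells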
Method: (§2) By using an MTT method, a sample solution to be tested was added to a 96-well plate in which cancer cells were adherently grown. Culturing was performed for a certain period, and the growth inhibition effect of a compound on a human cancer cell strain for primary screening was measured to determine the anti-cancer activity of the compound.
(§3) Cell culture: A cell incubator was set to conditions of 37° C., 5% CO2, and a saturated humidity, cells were cultured under these conditions, and the cell medium was a DMEM complete medium, wherein 10% fetal bovine serum, 100 IU/mL penicillin, and 100 μg/mL streptomycin were comprised.
(§4) The single cell suspension was diluted to 5×10^3/100 μL after counting, inoculated on a 96-well cell culture plate (triplicate), and adherently cultured overnight;
(§5) After 24 h of adhesion, the complete medium was discarded, 100 μL-sample-solutions to be tested having different concentrations were sequentially added to the 96-well plate according to a concentration gradient, and incubations were continued for 24 h, 48 h, and 72 h;
(§6) The culture liquid was discarded, a 0.5 mg/mL MTT diluted working liquid was added, and incubation was performed for 4 h by placing in an incubator;
(§7) The culture liquid was discarded, 100 μL of DMSO was added, low-speed oscillation was performed for 10 min by placing on a shaker, and the spectrophotometric value of each well was measured at a wavelength of 490 nm by using a microplate reader. Statistical analysis was performed and tumor cell growth inhibition rate was calculated according to the equation: Growth inhibition rate=(OD value of control group−OD value of experimental group)/OD value of control group.
(§8) Culturing was performed for a certain period, the growth inhibition effect of a compound on 3 human cancer cell strains for primary screening was measured to determine the anti-cancer activity of the compound, and a growth inhibition curve was plotted.

[2] = tested on: human gastric cancer cell strain MGC-803; assay: MTT growth inhibition on MGC-803;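 further: adherent cells exposed to compound over a concentration gradient for 24, 48 and 72 h, MTT absorbance at 490 nm, inhibition relative to untreated control wells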
Method: as §2, §3, §4, §5, §6, §7, §8

[3] = tested on: human cervical cancer Hela cell strains; assay: MTT growth inhibition on Hela;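 further: compound exposure of 24, 48 or 72 h in DMEM with 10% fetal bovine serum, MTT absorbance read at 490 nm, inhibition calculated relative to control group OD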
Method: as §2, §3, §4, §5, §6, §7, §8

Vimentin = assay: Western blotting, Vimentin expression in HepG2 cells; type: cell-based, human; conditions: COM33 experiment (FIG. 17), combination compared to the sorafenib group
Protocol: (§1) Method: Gel electrophoresis of protein samples. Gel formulation: All components were added to a small beaker according to a formulation of a separation gel, uniformly mixed with slightly shaking to prevent the generation of bubbles, quickly applied to a seam of a glass plate with a 1 mL pipette, and then blocked with double distilled water to prevent oxidation. After 30 min, the separation gel solidified, the double distilled water thereof was poured off, waster was suctioned with a filter paper, a 5% concentration gel was formulated, TEMED was finally loaded onto the glass plate, and a 1.0 mm comb was inserted into the concentration gel and placed at room temperature for 30 min. The comb was slightly, vertically, and carefully pulled up, various groups of 20 μL protein samples were pipetted with a microsyringe, an equal volume of a loading buffer and an equal volume of a loading buffer containing 3 μL of Marker were separately added to a loading well, an electrophoresis instrument was switched on after electrodes were plugged, gels were run at 75V for 30 min, and the voltage was changed to 120V and gels were run for 2 h when bromophenol blue reaches the separation gel. Membrane transfer: A PVDF membrane having a suitable size was cut according to the size of the gel, placed in a methanol solution for 1 min, lifted, and placed and soaked together with a well cut filter paper in a previously precooled membrane transfer buffer. A sponge pad, three layers of filter paper, a gel, three layers of filter paper, and a sponge pad, in this order from top to bottom, were placed in a membrane transfer tank, and a precooled membrane transfer buffer was then added. Several ice bags were placed circumferentially to prevent an excessively hot external environment, and electrodes were plugged and membrane transfer was performed at a constant current of […] for 2.5 hours. Blocking and incubation of antibodies: A transferred membrane was cut into desired bands, which were placed in a blocking solution of 5% skim milk powder, placed on a shaker, and shaken at room temperature at a low speed for 1 h. A primary antibody was diluted with the blocking solution, a corresponding antibody was pipetted and added to a zip lock bag, the PVDF membrane was then placed in the antibody dilution, bubbles in the zip lock bag were evacuated, and the zip lock bag was sealed and placed in a refrigerator at 4° C. overnight. The membrane was withdrawn from the zip lock bag on the second day, and placed in a clean dish. A TBST solution was added and washed 3 times on a low-speed shaker, 10 min for each time. […]

[4] = tested on: ascites hepatoma H22 induced solid tumor; assay: In vivo tumor growth inhibition in mice bearing H22; design: species or system white Kunming mice; conditions: Table 6; high COM33 dosage group (100 g/Kg), intraperitoneal injection
From the text: 1. Tumor strain and animal for experiments: H22 liver cancer cell strain was provided by Teaching and Research Office, School of Basic Medical Sciences, Lanzhou University/Key Lab of Preclinical Study for New Drugs of Gansu Province, and was passage and preserved by periodically intraperitoneal inoculation. White Kunming mice (18.0-22.0 g) were provided by Lanzhou Veterinary Institute, Chinese Academy of Agriculture.
2. Establishment of tumor models and method of grouping: a third passage of mice which were well grown 7 d after intraperitoneal inoculation of H22 tumor cells were sacrificed by cervical dislocation, and placed and soaked in 75% alcohol for 10 min. After 3 mL of sterile physiological saline was intraperitoneally injected, milky tumor cell ascites was withdrawn from the abdominal cavity, and formulated into a tumor cell suspension with sterile physiological saline, with a cell number of 1.5×10^7 mL^−1. 80 white Kunming mice were taken, and 0.2 mL of the tumor cell suspension was subcutaneously inoculated to the left axilla of each mouse. 24 h after the inoculation of tumor cells, the mice were divided into 8 groups according to body weights, 10 mice for each group. […] All of the administration manners were intraperitoneal administration.
3. Result of experiments: On the second day of modeling, continuous administration was performed for 10 d. Administration was stopped on the 11th d, and mice were sacrificed by cervical dislocation on the next day.
Test method: For the test method, see Example 24. Results can be seen in FIG. 15, FIG. 16, and Table 5.
Method: Modeling was performed by using the method of establishing H22 white mice tumor-bearing model of Example 24. The in vivo tumor growth inhibition activity of COM33 on H22 model mice was measured in an intraperitoneal injection administration manner.

[5] = tested on: ascites hepatoma H22 induced solid tumor; assay: as above; design: species or system white Kunming mice; conditions: Table 6; low COM33 dosage group (50 mg/Kg), intraperitoneal injection
[6] = tested on: C-Myc, Ki-67, CylinD1, β-Catenin protein; assay: Western blotting, protein expression in HepG2 cells; type: cell-based, human; conditions: sorafenib 4 μg/mL, high COM33 dosage 10.0 μg/mL, combination 4 μg/mL sorafenib+5.0 μg/mL COM33
Protocol: as §1

[7] = Homo sapiens, HepG2, Table 1, MTT, read-out: IC50 HepG2
[8] = Homo sapiens, MGC-803, read-out: IC50 MGC-803
[9] = Homo sapiens, HeLa, read-out: IC50 HeLa
[10] = Homo sapiens, HepG2, read-out: IC50 HepG2
[11] = Homo sapiens, MGC-803, read-out: IC50 MGC-803, Table 1, MTT
[12] = Homo sapiens, HeLa, read-out: IC50 HeLa, Table 1, MTT

| pIC50 [1, 7] | pIC50 [2, 11] | pIC50 [3, 12] | Compound | pIC50 [2, 8] | pIC50 [3, 9] | other results |
| --- | --- | --- | --- | --- | --- | --- |
| 4.27 | 4.32 | 4.33 | COc1cc(NC(=O)Nc2ccc(SC)cc2)c2c(c1O)-c1c(OC)c(OC)cc3c1C(C2)N(C)CC3 (stereo not shown) [Compound 4, 8-(N-(4′-methylsulfide-phenyl))-ureido-isocorydine] | – | – | – |
| 4.43 | 4.45 | 4.43 | COc1cc(NC(=O)Nc2ccccc2Cl)c2c(c1O)-c1c(OC)c(OC)cc3c1C(C2)N(C)CC3 (stereo not shown) [Compound 5, 8-(N-(2′-dichloro-phenyl))ureido-isocorydine] | – | – | – |
| 4.34 | 4.24 | 4.31 | COc1cc(NC(=O)Nc2ccc(C(F)(F)F)cc2)c2c(c1O)-c1c(OC)c(OC)cc3c1C(C2)N(C)CC3 (stereo not shown) [Compound 8, 8-(N-(4′-trifluoromethyl-phenyl))-ureido-isocorydine] | – | – | – |
| 4.67 | 4.66 | 4.78 | COc1cc(NC(=O)c2ccc(Cl)c(C(F)(F)F)c2)c2c(c1O)-c1c(OC)c(OC)cc3c1C(C2)N(C)CC3 (stereo not shown) [Compound 11, 8-N-(3′-trifluoromethyl-4′-chloro-benzoyl)-isocorydine] | – | – | – |
| 4.20 | 4.42 | 4.13 | COc1cc(NC(=O)/C=C/c2ccccc2)c2c(c1O)-c1c(OC)c(OC)cc3c1C(C2)N(C)CC3 (stereo not drawn) [Compound 12, 8-N-trans-cinnamoyl-isocorydine] | – | – | – |
| 4.16 | 4.46 | 4.30 | COc1cc(NC(=O)c2cccnc2)c2c(c1O)-c1c(OC)c(OC)cc3c1C(C2)N(C)CC3 (stereo not shown) [Compound 14, 8-N-nicotinamido-isocorydine] | – | – | – |
| 4.73 | 4.65 | 4.86 | COc1cc(NC(=O)Nc2ccc(N3CCC(N)CC3)c(C(F)(F)F)c2)c2c(c1O)-c1c(OC)c(OC)cc3c1C(C2)N(C)CC3 (stereo not shown) [Compound 20, 8-(N-(3′-trifluoromethyl-4′-(4″-amino-piperidine)-phenyl))-ureido-isocorydine] | – | – | – |

The next lines start with the molecule.

| Compound | pIC50 [1, 7] | pIC50 [2, 11] | pIC50 [3, 12] | pIC50 [2, 8] | pIC50 [3, 9] | other results |
| --- | --- | --- | --- | --- | --- | --- |
| COc1cc(NC(=O)Nc2ccc(Cl)c(Cl)c2)c2c(c1O)-c1c(OC)c(OC)cc3c1C(C2)N(C)CC3 (stereo not shown) [Compound 2, 8-(N-(3′,4′-dichloro-phenyl))-ureido-isocorydine] | 4.55 | – | – | 4.52 | 4.66 | – |
| COc1cc(NC(=O)Nc2ccc(C)cc2)c2c(c1OC(=O)Nc1ccc(C)cc1)-c1c(OC)c(OC)cc3c1C(C2)N(C)CC3 (stereo not shown) [Compound 3] | – | – | – | 4.59 | 4.72 | pIC50 [1, 10]: 4.79 |
| COc1cc(NC(=O)Nc2ccccc2Cl)c2c(c1OC(=O)Nc1ccccc1Cl)-c1c(OC)c(OC)cc3c1C(C2)N(C)CC3 (stereo not shown) [Compound 6] | – | – | – | 4.57 | 4.57 | pIC50 [1, 10]: 4.76 |
| COc1cc(NC(=O)Nc2ccccc2C)c2c(c1OC(=O)Nc1ccccc1C)-c1c(OC)c(OC)cc3c1C(C2)N(C)CC3 (stereo not shown) [Compound 7] | – | – | – | 4.64 | 4.36 | pIC50 [1, 10]: 4.50 |
| COc1cc(NC(=O)Nc2ccc(C(F)(F)F)cc2)c2c(c1OC(=O)Nc1ccc(C(F)(F)F)cc1)-c1c(OC)c(OC)cc3c1C(C2)N(C)CC3 (stereo not shown) [Compound 9] | – | – | – | 4.41 | 4.32 | pIC50 [1, 10]: 4.36 |
| COc1cc(NC(=O)Nc2ccc(F)cc2)c2c(c1OC(=O)Nc1ccc(F)cc1)-c1c(OC)c(OC)cc3c1C(C2)N(C)CC3 (stereo not shown) [Compound 10] | – | – | – | 4.60 | 4.57 | pIC50 [1, 10]: 4.57 |
| COc1cc(NC(=O)c2cc(Cc3n[nH]c(=O)c4ccccc34)ccc2F)c2c(c1O)-c1c(OC)c(OC)cc3c1C(C2)N(C)CC3 (stereo not shown) [Compound 13, 8-N-[2-fluoro-5-(4-oxo-3,4-dihydrophthalazin-1-yl)methyl]benzamido isocorydine] | 4.52 | 4.57 | 4.53 | – | – | – |
| COc1cc(NC(=O)Nc2ccccc2)c2c(c1O)-c1c(OC)c(OC)cc3c1C(C2)N(C)CC3 (stereo not shown) [Compound 15, 8-N-(phenyl)-ureido-isocorydine] | 4.12 | – | – | 4.25 | 4.21 | – |
| COc1cc(NC(=O)Nc2ccc(N3CCC(CNC(=O)OC(C)(C)C)CC3)c(C(F)(F)F)c2)c2c(c1O)-c1c(OC)c(OC)cc3c1C(C2)N(C)CC3 (stereo not shown) [Compound 16, 8-[3-trifluoromethyl-4-(4-methylaminoformic acid tert-butyl ester)piperidine]benzoylureido isocorydine] | 4.72 | 4.63 | 4.66 | – | – | – |
| COc1cc(NC(=O)Nc2ccc(N3CCC(CN)CC3)c(C(F)(F)F)c2)c2c(c1O)-c1c(OC)c(OC)cc3c1[C@H](C2)N(C)CC3 [Compound 17] | > 5.00 | > 5.00 | > 5.00 | – | – | pIC50 ([1]; Homo sapiens, HepG2, Table 2, MTT, read-out: IC50 HepG2): 5.12; Vimentin expression (Vimentin): expressed in all groups; Tumor inhibition rate (%) [4]: 73.8%; Tumor inhibition rate (%) [5]: 27.2%; pIC50 ([2]; Homo sapiens, MGC-803, read-out: IC50 MGC-803, Table 2, MTT): 4.95; pIC50 ([3]; Homo sapiens, HeLa, read-out: IC50 Hela, Table 2, MTT): 5.20; expressions of C-Myc, Ki-67, CylinD1 and β-Catenin protein compared to the blank control group [6]: significantly reduced |
| CCC(=O)NCC1CCN(c2ccc(NC(=O)Nc3cc(OC)c(O)c4c3CC3c5c(cc(OC)c(OC)c5-4)CCN3C)cc2C(F)(F)F)CC1 (stereo not shown) [Compound 18, 8-[3-trifluoromethyl-4-(4-methylaminoformic acid propyl ester)-piperidine]benzoylureido isocorydine] | 4.97 | 4.98 | 4.90 | – | – | – |
| COc1cc(NC(=O)Nc2ccc(N3CCC(NC(=O)OC(C)(C)C)CC3)c(C(F)(F)F)c2)c2c(c1O)-c1c(OC)c(OC)cc3c1C(C2)N(C)CC3 (stereo not shown) [Compound 19, 8-N-[3′-trifluoromethyl-4′-(4″-aminoformic acid tert-butyl ester-piperidine)-phenyl]-ureido isocorydine] | 4.59 | 4.54 | 4.57 | – | – | – |
| COC1=CC(=O)c2cc3c4c(cc(OC)c(OC)c4c2C1=O)CCN3C [TICD, isocorydione, reference compound] | – | – | – | – | – | pIC50 ([1]; Table 2, MTT, read-out: IC50 HepG2): 4.40; pIC50 ([2]; read-out: IC50 MGC-803, Table 2, MTT): 4.30; pIC50 ([3]; read-out: IC50 Hela, Table 2, MTT): 4.50 |
